Experimental data: patent US8962608B2, “Cycloalkylnitrile pyrazole carboxamides as janus kinase inhibitors” (Merck Sharp & Dohme Corp., priority 2011, dated 2015)

molecular target: JAK1 (recombinant purified GST-tagged catalytic domain) (Homo sapiens (Human), UniProt P23458); assay: biochemical
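Note: biochemical assay with HTRF read-out.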

Sequence of JAK1 (recombinant purified GST-tagged catalytic domain) (P23458 875-1153): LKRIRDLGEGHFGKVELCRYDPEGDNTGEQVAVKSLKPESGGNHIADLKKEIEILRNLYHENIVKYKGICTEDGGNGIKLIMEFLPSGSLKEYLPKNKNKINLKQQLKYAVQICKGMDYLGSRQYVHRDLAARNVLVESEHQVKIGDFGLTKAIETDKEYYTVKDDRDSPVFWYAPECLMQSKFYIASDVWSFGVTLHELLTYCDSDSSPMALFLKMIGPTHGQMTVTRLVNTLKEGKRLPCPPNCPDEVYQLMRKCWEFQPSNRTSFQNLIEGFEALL

IC50 [nM]	Structure (SMILES)
2	N#C[C@H]1C[C@H](N2CC(O)(C(F)(F)F)C2)CC[C@@H]1n1cc(C(N)=O)c(Nc2ccc(C(F)(F)F)cc2)n1 (single isomer, unassigned) [Example 28-201, 1-{(1S,2S,4R or 1R,2R,4S)-2-cyano-4-[3-hydroxy-3-(trifluoromethyl)azetidin-1-yl]cyclohexyl}-3-{[4-(trifluoromethyl)phenyl]amino}-1H-pyrazole-4-carboxamide]
1	CN(C)[C@@H]1CC[C@H](n2cc(C(N)=O)c(Nc3ccc(OC(F)F)cc3)n2)[C@@H](C#N)C1 (single isomer, unassigned) [Example 28-95, 1-[(1S,2S,4R or 1R,2R,4S)-2-cyano-4-(dimethylamino)cyclohexyl]-3-{[4-(difluoromethoxy)phenyl]amino}-1H-pyrazole-4-carboxamide]
2	CC(C)NC(=O)O[C@@H]1CCC(n2cc(C(N)=O)c(Nc3ccc(F)cc3)n2)[C@@H](C#N)C1 (mixture of isomers) [Example 34-4, (1R,3S,4S and 1S,3R,4R)-4-{4-carbamoyl-3-[(4-fluorophenyl)amino]-1H-pyrazol-1-yl}-3-cyanocyclohexyl propan-2-ylcarbamate]
0.55	CN(C)[C@H]1CC[C@H](n2cc(C(N)=O)c(Nc3ccc(Cl)cc3)n2)[C@@H](C#N)C1 (single isomer, unassigned) [Example 28-117, 3-[(4-chlorophenyl)amino]-1-[(1S,2S,4S or 1R,2R,4R)-2-cyano-4-(dimethylamino)cyclohexyl]-1H-pyrazole-4-carboxamide]
11	C[C@H](N[C@@H]1CC[C@H](n2cc(C(N)=O)c(Nc3ccc(OC(F)F)nc3)n2)[C@@H](C#N)C1)C1CC1 (single isomer, unassigned) [Example 28-13, 1-[(1S,2S,4R or 1R,2R,4S)-2-cyano-4-{[(1S)-1-cyclopropylethyl]amino}cyclo-hexyl]-3-{[6-(difluoromethoxy)pyridin-3-yl]amino}-1H-pyrazole-4-carboxamide]
0.6	N#C[C@H]1C[C@@H](N2CCC2)CC[C@@H]1n1cc(C(N)=O)c(Nc2ccc(CC(F)(F)F)cc2)n1 (single isomer, unassigned) [Example 28-69, 1-[(1S,2S,4S or 1R,2R,4R)-4-azetidin-1-yl-2-cyanocyclohexyl]-3-{[4-(2,2,2-trifluoroethyl)phenyl]amino}-1H-pyrazole-4-carboxamide]
3	N#C[C@H]1C[C@@H](NCC(F)(F)F)CC[C@@H]1n1cc(C(N)=O)c(Nc2ccc(Cl)cc2)n1 (single isomer, unassigned) [Example 28-224, 3-[(4-chlorophenyl)amino]-1-{(1S,2S,4S or 1R,2R,4R)-2-cyano-4-[(2,2,2-trifluoroethyl)amino]cyclo-hexyl}-1H-pyrazole-4-carboxamide]
15	N#C[C@H]1C[C@@](O)(C2CC2)CC[C@@H]1n1cc(C(N)=O)c(Nc2ccc(Cl)cc2)n1 (single isomer, unassigned) [Example 32-14, 3-[(4-chlorophenyl)amino]-1-[(1S,2S,4R or 1R,2R,4S)-2-cyano-4-cyclopropyl-4-hydroxycyclohexyl]-1H-pyrazole-4-carboxamide]
1	C[C@]1(O)CC[C@H](n2cc(C(N)=O)c(Nc3ccc(Cl)cc3)n2)[C@@H](C#N)C1 (single isomer, unassigned) [Example 32-10, 3-[(4-chlorophenyl)amino]-1-[(1S,2S,4S or 1R,2R,4R)-2-cyano-4-hydroxy-4-methylcyclohexyl]-1H-pyrazole-4-carboxamide]
3	COC1CN([C@H]2CC[C@H](n3cc(C(N)=O)c(Nc4ccc(C(F)(F)F)cc4)n3)[C@@H](C#N)C2)C1 (single isomer, unassigned) [Example 28-99, 1-[(1S,2S,4S or 1R,2R,4R)-2-cyano-4-(3-methoxyazetidin-1-yl)cyclohexyl]-3-{[4-(trifluoromethyl)phenyl]amino}-1H-pyrazole-4-carboxamide]
2	CN(C)[C@@H]1CC[C@H](n2cc(C(N)=O)c(Nc3ccc(Cl)cc3)n2)[C@@H](C#N)C1 (single isomer, unassigned) [Example 28-125, 3-[(4-chlorophenyl)amino]-1-[(1S,2S,4R or 1R,2R,4S)-2-cyano-4-(dimethylamino)cyclohexyl]-1H-pyrazole-4-carboxamide]
3	N#C[C@@H]1C[C@H](C(=O)N2CC(F)(F)C2)CC[C@H]1n1cc(C(N)=O)c(Nc2ccc(Cl)cc2)n1 (single isomer, unassigned) [Example 35-15, 3-[(4-chlorophenyl)amino]-1-{(1R,2R,4R or 1S,2S,4S)-2-cyano-4-[(3,3-difluoroazetidin-1-yl)carbonyl]cyclohexyl}-1H-pyrazole-4-carboxamide]
33	N#C[C@@H]1CCCC[C@@H]1n1cc(C(N)=O)c(Nc2ccc(F)nc2)n1 (racemic) [Example 17-24, 1-[(1S,2R and 1R,2S)-2-cyanocyclohexyl]-3-[(6-fluoropyridin-3-yl)amino]-1H-pyrazole-4-carboxamide]
0.55	CN([C@H]1CC[C@H](n2cc(C(N)=O)c(Nc3ccc(Cl)cc3)n2)[C@@H](C#N)C1)C(C)(C)C (single isomer, unassigned) [Example 28-6, 1-((1S,2S,4S or 1R,2R,4R)-4-(tert-butyl(methyl)amino)-2-cyanocyclohexyl)-3-((4-chlorophenyl)amino)-1H-pyrazole-4-carboxamide]
1	N#C[C@H]1C[C@@H](NCC(F)(F)F)CC[C@@H]1n1cc(C(N)=O)c(Nc2ccnc(F)c2)n1 (single isomer, unassigned) [Example 28-111, 1-{(1S,2S,4S or 1R,2R,4R)-2-cyano-4-[(2,2,2-trifluoroethyl)amino]cyclohexyl}-3-[(2-fluoropyridin-4-yl)amino]-1H-pyrazole-4-carboxamide]
0.35	N#C[C@H]1CCCC[C@@H]1n1cc(C(N)=O)c(Nc2ccc([C@@H](O)C(F)(F)F)nc2)n1 (single isomer, unassigned) [Example 17-46, 1-[(1S,2S or 1R,2R)-2-cyanocyclohexyl]-3-({6-[(1R or 1S)-2,2,2-trifluoro-1-hydroxyethyl]pyridin-3-yl}amino)-1H-pyrazole-4-carboxamide]
0.3	CC(C)NS(=O)(=O)c1ccc(Nc2nn([C@H]3CCCC[C@@H]3C#N)cc2C(N)=O)cc1 (single isomer, unassigned) [Example 17-93, 1-[(1R,2R or 1S,2S)-2-cyanocyclohexyl]-3-({4-[(1-methylethyl)sulfamoyl]phenyl}amino)-1H-pyrazole-4-carboxamide]
1	N#C[C@H]1C[C@@H](N2CC(O)(C(F)(F)F)C2)CC[C@@H]1n1cc(C(N)=O)c(Nc2ccc(C(F)(F)F)cc2)n1 (single isomer, unassigned) [Example 28-200, 1-{(1S,2S,4S or 1R,2R,4R)-2-cyano-4-[3-hydroxy-3-(trifluoromethyl)azetidin-1-yl]cyclohexyl}-3-{[4-(trifluoromethyl)phenyl]amino}-nvrazole-4-carboxamide]
0.7	N#C[C@H]1CCCC[C@@H]1n1cc(C(N)=O)c(Nc2ccc(OC(F)F)cc2)n1 (single isomer, unassigned) [Example 17-103, 1-[(1S,2S or 1R,2R)-2-cyanocyclohexyl]-3-{[4-(difluoromethoxy)phenyl]amino}-1H-pyrazole-4-carboxamide]
17	CC(C)(C)OC(=O)[C@H]1CCC(n2cc(C(N)=O)c(Nc3ccc(F)cc3)n2)[C@@H](C#N)C1 (mixture of isomers) [Example 7-1, tert-Butyl (1S,3S,4S and 1R,3R,4R)-4-{4-carbamoyl-3-[(4-fluorophenyl)amino]-1H-pyrazol-1-yl}-3-cyanocyclohexanecarboxylate]
1	COCC(C)N[C@H]1CCC(n2cc(C(N)=O)c(Nc3ccc(Cl)cc3)n2)[C@@H](C#N)C1 (single isomer, unassigned) [Example 28-237, 3-[(4-chlorophenyl)amino]-1-[(1S,2S,4S or 1R,2R,4R)-2-cyano-4-{[(1S)-2-methoxy-1-methylethyl]amino}cyclohexyl]-1H-pyrazole-4-carboxamide]
180	N#C[C@H]1C[C@@H](C(=O)N[C@@H](C2CC2)C(F)(F)F)CC[C@@H]1n1cc(C(N)=O)c(Nc2ccc(Cl)cc2)n1 (single isomer, unassigned) [Example 35-24, 3-[(4-chlorophenyl)amino]-1-[(1S,2S,4S or 1R,2R,4R)-2-cyano-4-{[(1S)-1-cyclopropyl-2,2,2-trifluoroethyl]carbamoyl}cyclohexyl]-1H-pyrazole-4-carboxamide]
1	CN(C)[C@H]1CC[C@H](n2cc(C(N)=O)c(Nc3ccc(F)cc3)n2)[C@@H](C#N)C1 (single isomer, unassigned) [Example 28-102, 1-[(1S,2S,4S or 1R,2R,4R)-2-cyano-4-(dimethylamino)cyclohexyl]-3-[(4-fluorophenyl)amino]-1H-pyrazole-4-carboxamide]
2	C[C@@H]1C[C@@H](C)N1[C@H]1CC[C@H](n2cc(C(N)=O)c(Nc3ccc(C(F)(F)F)cc3)n2)[C@@H](C#N)C1 (single isomer, unassigned) [Example 28-9, 1-{(1S,2S,4S or 1R,2R,4R)-2-cyano-4-[(2R,4R or 2S,4S)-2,4-dimethylazetidin-1-yl]cyclohexyl}-3-{[4-(trifluoromethyl)phenyl]amino}-1H-pyrazole-4-carboxamide]
2	N#C[C@H]1C[C@@H](N2CCC2)CC[C@@H]1n1cc(C(N)=O)c(Nc2ccc(OC(F)F)cc2)n1 (single isomer, unassigned) [Example 28-108, 1-[(1S,2S,4S or 1R,2R,4R)-4-azetidin-1-yl-2-cyanocyclohexyl]-3-{[4-(difluoromethoxy)phenyl]amino}-1H-pyrazole-4-carboxamide]
1	CC(C)(O)C1CC(CN[C@H]2CC[C@@H](n3cc(C(N)=O)c(Nc4ccc(C(F)(F)F)cc4)n3)[C@H](C#N)C2)C1 (single isomer, unassigned) [Example 30-4, 1-[(1R,2R,4S or 1S,2S,4R)-2-cyano-4-({[3-(1-hydroxy-1-methylethyl)cyclo-butyl]methyl}amino)cyclo-hexyl]-3-{[4-(trifluoro-methyl)phenyl]amino}-1H-pyrazole-4-carboxamide]
